Experimental data taken from patent US20070123508A1, “PAR2-modulating compounds and their use” (priority 2005, published 2007).
pEC50: −log10 of the molar value.

Target: T1, human PAR2 (Homo sapiens, UniProt P55085)
T1 construct: expressed in transfected cells; host or cells: NIH3T3 cells, transiently transfected; receptor in pSI-derived mammalian expression vector
T1 sequence (P55085 26-397): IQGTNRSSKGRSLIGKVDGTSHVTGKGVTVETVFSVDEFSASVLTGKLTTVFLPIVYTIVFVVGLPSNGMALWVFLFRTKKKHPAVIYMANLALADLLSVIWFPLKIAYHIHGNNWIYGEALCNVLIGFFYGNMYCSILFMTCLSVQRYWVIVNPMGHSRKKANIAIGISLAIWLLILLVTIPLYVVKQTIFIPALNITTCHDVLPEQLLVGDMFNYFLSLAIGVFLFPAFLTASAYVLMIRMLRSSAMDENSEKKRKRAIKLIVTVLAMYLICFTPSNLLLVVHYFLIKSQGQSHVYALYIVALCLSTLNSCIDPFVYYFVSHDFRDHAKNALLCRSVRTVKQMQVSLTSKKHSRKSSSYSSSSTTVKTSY
Assay: Receptor Selection and Amplification Technology (R-SAT) functional receptor assay
Format: cell-based
Details: for pEC50: NIH3T3 cells transfected with PAR2, negative log of EC50 (molar); for Emax: percent maximum activation relative to the ligand SLIGRL, read-out: % Efficacy
Experimental: The functional receptor assay, Receptor Selection and Amplification Technology (R-SAT), was used to investigate the pharmacological properties of known and novel PAR2 compounds. R-SAT is disclosed in U.S. Pat. Nos. 5,707,798, 5,912,132, and 5,955,281, all of which are hereby incorporated herein by reference in their entirety, including any drawings.
Briefly, NIH3T3 cells were grown in 96 well tissue culture plates to 70-80% confluence. Cells were transfected for 16-20 h with plasmid DNAs using Polyfect (Qiagen Inc.) using the manufacturer's protocols. R-SATs were generally performed with 4 ng/well of receptor and 20 ng/well of β-galactosidase plasmid DNA. All receptor constructs used were in the pSI-derived mammalian expression vector (Promega Inc). The PAR2 gene was amplified by PCR from genomic DNA using oligodeoxynucleotide primers based on the published sequence (GenBank Accession # Z49993 and Z49994). For large-scale transfections, cells were transfected for 16-20 h, then trypsinized and frozen in DMSO. Frozen cells were later thawed, plated at ˜10,000 cells per well of a 96 half-area well plate that contained drug. With both methods, cells were then grown in a humidified atmosphere with 5% ambient CO2 for five days. Media was then removed from the plates and marker gene activity was measured by the addition of the β-galactosidase substrate o-nitrophenyl β-D-galactopyranoside (ONPG) in PBS with 0.5% NP-40. The resulting colorimetric reaction was measured using a spectrophotometric plate reader (Titertek Inc.) at 420 nm. All data was analyzed using the XLFit (IDBSm) computer program. Efficacy is the percent maximum activation compared to activation by a control compound (SLIGRLm). pEC50 is the negative of the log(EC50), where EC50 is the calculated as a molar concentration (M) that produces 50% maximal activation.
These experiments provide a molecular profile, or fingerprint, for each of these agents at the human PAR2.
Efficacy is relative to the ligand SLIGRL.

CC(=NNC(=O)C1C(=O)NCC1c1ccccc1)c1cccc(Br)c1 (mixture of isomers) [Compound 3, 2-Oxo-4-phenyl-3-pyrrolidinecarboxylic acid [1-(3-bromo-phenyl)-(E/Z)-ethylidene]-hydrazide]
pEC50: 7.40
Emax: 134%

CC(=NNC(=O)C1C(=O)NCC1c1ccccc1)c1cccs1 (mixture of isomers) [Compound 5, 2-Oxo-4-phenyl-3-pyrrolidinecarboxylic acid [1-(thiophen-2-yl)-(E/Z)-ethylidene]-hydrazide]
pEC50: 5.80
Emax: 52%

CC(=NNC(=O)C1C(=O)NCC1c1ccccc1)c1cncc(Br)c1 (mixture of isomers) [Compound 7, 2-Oxo-4-phenyl-3-pyrrolidinecarboxylic acid [1-(5-bromo-pyridine-3-yl)-(E/Z)-ethylidene]-hydrazide]
pEC50: 6.10
Emax: 106%

CC(=NNC(=O)C1C(=O)NCC1c1ccccc1)c1cc(Br)cs1 (mixture of isomers) [Compound 6, 2-Oxo-4-phenyl-3-pyrrolidinecarboxylic acid [1-(4-bromo-thiophen-2-yl)-(E/Z)-ethylidene]-hydrazide]
pEC50: 6.40
Emax: 109%

CC(=NNC(=O)C1C(=O)NCC1c1ccccc1)c1ccc(Br)s1 (mixture of isomers) [Compound 4, 2-Oxo-4-phenyl-3-pyrrolidinecarboxylic acid [1-(5-bromo-thiophen-2-yl)-(E/Z)-ethylidene]-hydrazide]
pEC50: 6.20
Emax: 87%
